In ChEMBL document CHEMBL1131736, “Lipase-catalyzed protection of the hydroxy groups of the nucleosides inosine and 2'-deoxyinosine: a new chemoenzymatic synthesis of the antiviral drug 2',3'-dideoxyinosine” (Bioorg Med Chem Lett, 1999):
The source made the active and inactive calls. No cut-off for these calls is given here.

Test system: Human immunodeficiency virus 1
Test: Compound was tested for antiretroviral activity against HIV; compound found active.
Type: functional, organism-based

O=c1[nH]cnc2c1ncn2[C@H]1CC[C@@H](CO)O1
Activity: Active
